{"source": "paper PMC6874683", "about": "“Pyrrothiogatain acts as an inhibitor of GATA family proteins and inhibits Th2 cell differentiation in vitro” (Scientific Reports, 2019)", "key": {"GATA3-SOX4 interaction": {"target": "T1, GATA3-SOX4 interaction (Homo sapiens, UniProt P23771)", "T1 construct": "we synthesized the recombinant full-length GATA3 protein with an N-terminal FLAG tag using the wheat cell-free system; made in house; host or cells: wheat cell-free protein synthesis system (WEPRO1240 kit), BirA added for biotinylation", "T1 sequence (P23771 whole entry)": "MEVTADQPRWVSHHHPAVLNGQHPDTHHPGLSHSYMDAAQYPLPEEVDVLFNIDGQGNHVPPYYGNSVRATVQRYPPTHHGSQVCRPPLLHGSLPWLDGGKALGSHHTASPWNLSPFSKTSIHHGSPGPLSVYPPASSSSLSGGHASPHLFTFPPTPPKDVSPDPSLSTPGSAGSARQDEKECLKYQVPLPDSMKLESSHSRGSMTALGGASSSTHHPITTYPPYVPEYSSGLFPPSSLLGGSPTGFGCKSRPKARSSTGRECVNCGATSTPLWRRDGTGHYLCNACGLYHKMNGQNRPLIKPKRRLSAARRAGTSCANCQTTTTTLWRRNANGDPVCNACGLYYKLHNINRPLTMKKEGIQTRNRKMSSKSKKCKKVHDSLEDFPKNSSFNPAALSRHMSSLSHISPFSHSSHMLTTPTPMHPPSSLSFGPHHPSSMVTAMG", "test": "Immunoprecipitation of GATA3 and SOX4", "assay_type": "binding", "details": "0 to 100 µM", "method": "Co-immunoprecipitation analysis of GATA3 and SOX4 was conducted as follows. Immunoprecipitation of FLAG-tagged GATA3 in the presence of pyrrothiogatain (0 to 100 µM) was performed by mixing recombinant FLAG-GATA3 and AGIA-SOX4 with 10 µL of anti-FLAG M2 affinity agarose gel (cat#A2220, Sigma-Aldrich) by rotation at 4 °C for 2 h. The agarose gels were washed three times, and then the immunoprecipitated protein was detected by immunoblotting using anti-FLAG M2 antibody and anti-AGIA-HRP[36]."}, "[1]": {"test_system": "OVA-induced allergic mice", "test": "OVA-induced allergic airway inflammation model", "assay_type": "in vivo, mouse", "details": "20 mg/kg intraperitoneally every day from day 0 to 6, versus vehicle control", "method": "C57BL/6 mice at 7 weeks old were immunized intraperitoneally with 100 µg OVA (Cat#A5503, Sigma) in 2 % aluminium hydroxide gel (Cat#vax-alu-250, InvivoGen) on day 0. The mice were challenged intranasally with 100 µg OVA in saline on days 7, 8 and 9. Pyrrothiogatain was administrated intraperitoneally at a concentration of 20 mg/kg in PBS every day from day 0 to 6. The day after the last OVA challenge, BAL fluid cells were subjected to histological examination using the Diff Quick stain (Cat#16920, Sysmex). All animal experiments received approval from the Ehime University Administrative Panel for Animal Care. All animal care was conducted in accordance with the guidelines of Ehime University."}}, "note": "“Also recorded” adds a separate entry of the source.", "data": [{"smiles": "Cc1ccc(C)n1-c1ccsc1C(=O)O", "note": "[Pyrrothiogatain, 3-(2,5-dimethyl-1H-pyrrol-1-yl)thiophene-2-carboxylic acid]", "values": [{"measurement": "GATA3-SOX4 interaction by immunoprecipitation", "setting": "GATA3-SOX4 interaction", "result": "dose-dependent decrease"}, {"measurement": "Number of inflammatory cells in the bronchoalveolar lavage (BAL) fluid", "setting": "[1]", "result": "no significant difference; also recorded: did not significantly decrease"}]}]}
